Data taken from patent US20250144099A1, “INK4 TUMOR SUPPRESSOR PROTEINS MEDIATE RESISTANCE TO CDK4/6 KINASE INHIBITORS” (MEMORIAL SLOAN-KETTERING CANCER CENTER, priority 2021, published 2025).
“Also recorded” adds a separate entry of the source.

Key:
[1] = test system: MCF-7 CDK6-high cells (FAT1 loss); test: Cell viability assay (Resazurin); format: cell-based, human; conditions: day 7
Experimental: (§1) Cell viability was measured by Resazurin (R&D Systems, Minneapolis, MN, USA) as described previously (51). Briefly, 1,500 cells were seeded in a 96-well plate and allowed to recover overnight. Cells were treated with drugs at day 0. Resazurin was added to the cells 4 hours prior to the measurements on day 3, day 5 and day 7. Fluorescent intensity was measured using a microplate reader (SpectraMax M5, Molecular Devices, Sunnyvale, CA, USA). IC50 was calculated by GraphPad Prism 7.0 using a sigmoidal regression model.

~900 cell lines = test: PRISM cell line screening; format: cell-based; conditions: 8 pt. dose, 5 days
Experimental: Cell Lines. The current PRISM cell set consists of 931 cell lines representing more than 45 lineages including both adherent and suspension/hematopoietic cell lines. These cell lines largely overlap with and reflect the diversity of the Cancer Cell Line Encyclopedia (CCLE) cell lines (see https://portals.broadinstitute.org/ccle). Cell lines were grown in RPMI 10% FBS without phenol red for adherent lines and RPMI 20% FBS without phenol red for suspension lines. Parental cell lines were stably infected with a unique 24-nucleotide DNA barcode via lentiviral transduction and blasticidin selection. After selection, barcoded cell lines were expanded and QCed (mycoplasma contamination test, a SNP test for confirming cell line identity, and barcode ID confirmation). Passing barcoded lines were then pooled (20-25 cell lines per pool) based on doubling time and frozen in assay-ready vials.
PRISM Screening. […] These assay ready plates were then seeded with the thawed cell line pools. […]
Barcode Amplification and Detection. Each cell line's unique barcode is located at the end of the blasticidin resistance gene and gets expressed as mRNA. […] Finally, Luminex beads that recognize the specific barcode sequences in the cell set were hybridized to the PCR products and then detected using a Luminex scanner which reports signal as a median fluorescent intensity (MFI).

[2] = test system: T47D parental and CDK6-overexpressing cells; test: Cell proliferation assay; format: cell-based, human; conditions: recorded at day 3, day 5 and day 7
Experimental: as §1

[3] = test system: CDK6-high (FAT-1 loss) tumors; test: Pharmacodynamic study in tumor-bearing mice (immunoblotting of tumors); format: in vivo, NSG mice; conditions: 25 mg/kg i.p., 3 consecutive days, tumors collected at 6 h
Experimental: Pharmacodynamic study. NOD.Cg-Prkdc Il2rg<tm1Wjl>/SzJ (NSG) mice were obtained from the Jackson Laboratory (Stock #: 005557). Each mouse was injected with FAT1 loss cells subcutaneously 1 week after the implantation of estradiol pellets (25 mg). After the tumors reached 200 mm^3, mice were treated for 3 consecutive days with BSJ-05-017 at 25 mg/kg. Tumors were collected at 6 h. Lysates were prepared by homogenization in SDS-lysis buffer (˜1 ml/mg tissue) (50 mM Tris-HCl pH 7.4, 2% SDS) and boiled for 10 min, followed by brief sonication as described previously (65). Lysates were cleared by centrifugation at 14,000 g for 10 min and the supernatant was collected for western blotting.

CDK6-high cells = test: Senescence Green flow cytometry assay; format: cell-based, human; conditions: 8 days; BSJ-05-017 500 nM, abemaciclib 100 nM, palbociclib 500 nM
Experimental: Senescence analysis. […] Cells were harvested using trypsin/EDTA, then stained with the CellEvent Senescence Green Flow Cytometry Assay Kit (Invitrogen) according to the manufacturer's instructions. Briefly, cells were fixed with 2% paraformaldehyde for 15 min at room temperature and stained with the CellEvent Senescence Green Probe for 2 hours at 37° C. without CO2. After incubation, cells were washed with PBS 3 times and resuspended in FACS buffer (PBS with 2% FBS) for analysis on BD Biosciences LSR Fortessa using a 488 nm laser and 530 nm/30 filter (BD Biosciences). Data analysis was performed with FCS Express 7 (De Novo Software).

CC(=O)c1c(C)c2cnc(Nc3ccc(N4CCN(CCCCC(=O)N[C@H](C(=O)N5C[C@H](O)C[C@H]5C(=O)N[C@@H](C)c5ccc(-c6scnc6C)cc5)C(C)(C)C)CC4)cn3)nc2n(C2CCCC2)c1=O [BSJ-05-017, (2S,4R)-1-((S)-2-(5-(4-(6-((6-acetyl-8-cyclopentyl-5-methyl-7-oxo-7,8-dihydropyrido[2,3-d]pyrimidin-2-yl)amino)pyridin-3-yl)piperazin-1-yl)pentanamido)-3,3-dimethylbutanoyl)-4-hydroxy-N—((S)-1-(4-(4-methylthiazol-5-yl)phenyl)ethyl)pyrrolidine-2-carboxamide]
inhibition of cell growth [1]: equal potency; also recorded: equipotent in suppressing proliferation
inhibition of cell growth across cell lines (AUC of cell viability) (~900 cell lines): cells of other cancer types are also sensitive
inhibition of cell growth [2]: inhibits the growth of both T47D parental and CDK6-overexpressing cells
Rb1 phosphorylation and E2F1 expression in tumors [3]: significant suppression of Rb1 phosphorylation and E2F1 expression
degradation of CDK4 and CDK6 in tumors [3]: near complete degradation of CDK4 and CDK6
senescence-marker positive cells (CDK6-high cells): significantly higher number of cells into senescence compared with abemaciclib or palbociclib
